According to paper PMC9036822 (Journal of medicinal chemistry, 2021):
“Also recorded” adds a separate entry of the source. Like-named read-outs stand apart in the source and are kept apart here. One block for each compound: values may come before it.

Experiments:
PRMT5:WDR77 complex = PRMT5:WDR77 complex (Homo sapiens, UniProt O14744); test: SPR competition assay, full-length pICln titrated on pre-incubated PRMT5:WDR77; assay type: binding; details: PRMT5 pre-incubated with 2 μM compound overnight at 4C
Sequence of PRMT5:WDR77 complex (O14744 whole entry): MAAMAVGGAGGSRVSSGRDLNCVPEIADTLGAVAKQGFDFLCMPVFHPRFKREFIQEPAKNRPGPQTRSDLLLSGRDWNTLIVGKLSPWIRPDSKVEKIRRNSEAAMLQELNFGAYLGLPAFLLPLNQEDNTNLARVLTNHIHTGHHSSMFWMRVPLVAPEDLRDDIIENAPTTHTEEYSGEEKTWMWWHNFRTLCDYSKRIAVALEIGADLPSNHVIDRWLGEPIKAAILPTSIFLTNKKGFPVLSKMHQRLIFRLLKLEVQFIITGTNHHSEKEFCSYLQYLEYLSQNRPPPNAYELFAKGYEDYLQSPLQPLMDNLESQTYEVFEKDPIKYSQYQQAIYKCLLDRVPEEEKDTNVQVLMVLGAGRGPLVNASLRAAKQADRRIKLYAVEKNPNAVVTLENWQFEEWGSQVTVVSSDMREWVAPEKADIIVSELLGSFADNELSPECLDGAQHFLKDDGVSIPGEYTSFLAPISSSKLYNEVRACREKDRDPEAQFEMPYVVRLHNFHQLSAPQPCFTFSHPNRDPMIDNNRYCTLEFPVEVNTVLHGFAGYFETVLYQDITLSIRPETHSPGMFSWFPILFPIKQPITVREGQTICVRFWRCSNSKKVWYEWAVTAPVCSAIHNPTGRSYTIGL
Sequence of PRMT5:WDR77 complex (Q9BQA1 whole entry partner): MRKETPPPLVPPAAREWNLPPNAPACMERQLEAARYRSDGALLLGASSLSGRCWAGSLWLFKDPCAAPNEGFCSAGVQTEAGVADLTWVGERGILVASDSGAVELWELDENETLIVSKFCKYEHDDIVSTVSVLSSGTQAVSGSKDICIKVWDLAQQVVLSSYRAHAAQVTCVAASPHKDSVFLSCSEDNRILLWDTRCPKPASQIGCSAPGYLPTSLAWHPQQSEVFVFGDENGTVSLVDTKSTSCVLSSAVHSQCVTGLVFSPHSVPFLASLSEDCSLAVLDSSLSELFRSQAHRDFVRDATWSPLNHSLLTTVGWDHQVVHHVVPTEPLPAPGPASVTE

[1] = biological target: PRMT5:WDR77 hetero-octameric complex (Homo sapiens, UniProt O14744); test: Fluorescence polarization; assay type: binding; details: for inhibition of PRMT5-PBM peptide binding (in words): FP assay
Sequence of PRMT5:WDR77 hetero-octameric complex (O14744 whole entry): as the sequence (O14744 whole entry) above
Sequence of PRMT5:WDR77 hetero-octameric complex (Q9BQA1 whole entry partner): as the sequence (Q9BQA1 whole entry partner) above

PRMT5 C278A mutant = PRMT5 C278A mutant (Homo sapiens, UniProt O14744, C278A); test: FP competition assay with C278A mutant PRMT5
Sequence of PRMT5 C278A mutant (O14744 whole entry C278A): as the sequence (O14744 whole entry) above, with C278A counted along it
Sequence of PRMT5 C278A mutant (Q9BQA1 whole entry partner): as the sequence (Q9BQA1 whole entry partner) above

[2] = system: symmetric arginine dimethylation levels in MTAP−/− HCT116 cells; test: Western blot of total symmetric arginine dimethylation; assay type: cell-based; details: 25 μM
PRMT5 = PRMT5 (Homo sapiens, UniProt O14744); test: Target engagement in cells; assay type: cell-based; details: Expi293 cells, 6 hours, maximum labeling
Sequence of PRMT5 (O14744 whole entry): as the sequence (O14744 whole entry) above
Sequence of PRMT5 (Q9BQA1 whole entry partner): as the sequence (Q9BQA1 whole entry partner) above

PRMT5-RIOK1 complex = PRMT5-RIOK1 complex (Homo sapiens, UniProt O14744); test: PRMT5-RIOK1 NanoBiT assay in permeabilized cells; assay type: cell-based
Sequence of PRMT5-RIOK1 complex (O14744 whole entry): as the sequence (O14744 whole entry) above
Sequence of PRMT5-RIOK1 complex (Q9BQA1 whole entry partner): as the sequence (Q9BQA1 whole entry partner) above

inhibition of PRMT5-PBM peptide binding (in words) [1]: failed to inhibit this binding
Compound: Nc1nc2cc(CC[C@H]3C[C@@H](n4ccc5c(N)ncnc54)[C@H](O)[C@@H]3O)ccc2cc1Br [JNJ-64619178]

inhibition of PRMT5-PBM peptide binding (in words) [1]: failed to inhibit this binding
Compound: O=C(NC[C@H](O)CN1CCc2ccccc2C1)c1cc(NC2COC2)ncn1 [EPZ015666]

Further lines, the compound ahead of its results:

Compound: Cc1ccc(NC(=O)Cn2ncc(Cl)c(Cl)c2=O)cc1S(=O)(=O)NCCc1ccccn1 [Compound 6, 2-(4,5-Dichloro-6-oxopyridazin-1(6H)-yl)-N-(4-methyl-3-(N-(2-(pyridin-2-yl)ethyl)sulfamoyl)phenyl)acetamide]
pICln binding to compound-treated PRMT5 (in words) (PRMT5:WDR77 complex): greatly reduced binding response
IC50 [1]: 0.6 µM
IC50 (PRMT5 C278A mutant): > 100 µM

Compound: Cc1ccc(NC(=O)[C@H](C)n2ncc(Cl)cc2=O)cc1S(=O)(=O)NCCc1ccccn1 [Compound 27, (2S)-2-(4-chloro-6-oxo-pyridazin-1-yl)-N-[4-methyl-3-[2-(2-pyridyl)ethylsulfamoyl]phenyl]propanamide]
symmetric arginine dimethylation levels by WB (in words) [2]: reduction in symmetric arginine dimethylation levels; also recorded: reduces SDMA
total PRMT5 protein labeled (PRMT5): ~ 40%

Compound: Cc1ccc(N(C)C(=O)[C@H](C)n2ncc(Cl)cc2=O)cc1S(=O)(=O)NCCc1ccccn1 [Compound 29, (2S)-2-(4-chloro-6-oxo-pyridazin-1-yl)-N-methyl-N-[4-methyl-3-[2-(2-pyridyl)ethylsulfamoyl]phenyl]propanamide]
disruption of PRMT5-RIOK1 complex, permeabilized cells (in words) (PRMT5-RIOK1 complex): inactive

Compound: CSC[C@H]1O[C@@H](n2cnc3c(N)ncnc32)[C@H](O)[C@@H]1O [MTA, 5′-S-Methyl-5′-thioadenosine]
IC50 [1]: > 100 µM

Compound: competitor PBM peptide: pICln 13-mer control peptide displacing the fluorescently-labeled PBM probe (TVAGQFEDADVDH; Terminal caps are) [reference compound]
IC50 ([1]; read-out: FP IC50 against WT PRMT5, Fig. 3b, WT vs C278A comparison): 2 µM
IC50 (PRMT5 C278A mutant; read-out: FP IC50 against C278A mutant, Fig. 3b, C278A PRMT5): 1.4 µM

Compound: CN(C)S(=O)(=O)N1CCCC(NC(=O)Cn2ncc(Cl)c(Cl)c2=O)C1 (stereo not drawn) [Compound 18, 2-(4,5-Dichloro-6-oxopyridazin-1(6H)-yl)-N-(1-(N,N-dimethylsulfamoyl)piperidin-3-yl)acetamide]
inhibition of PRMT5-PBM peptide binding (in words) [1]: no ability to displace the PBM peptide
